Patent publication US6596718B1, “7-Morpholin-4yl-benzothiazole amide derivatives” (Hoffmann-La Roche Inc., priority 2001, dated 2003)

Point of comparison: `COc1ccccc1NC(=O)c1nc2c(OC)ccc(N3CCOCC3)c2s1` [Example 12, 4-Methoxy-7-morpholin-4-yl-benzothiazole-2-carboxylic acid (2-methoxy-phenyl)-amide], melting point 191 °C. Against it:
- COc1ccc(N2CCOCC2)c2sc(C(=O)NCCCc3ccccc3)nc12 [Example 40, 4-Methoxy-7-morpholin-4-yl-benzothiazole-2-carboxylic acid (3-phenyl-propyl)-amide] — lower, 147 °C
- COc1ccc(N2CCOCC2)c2sc(C(=O)NCC(=O)c3ccc4c(c3)OCCO4)nc12 [Example 75, 4-Methoxy-7-morpholin-4-yl benzothiazole-2-carboxylic acid [2-(2,3-dihydro-benzo[1,4]dioxin-6-yl)-2-oxo-ethyl]-amide] — higher, 206 to 208 °C
- COc1ccc(N2CCOCC2)c2sc(C(=O)NCCc3ccc(C)cc3)nc12 [Example 61, 4-Methoxy-7-morpholin-4-yl-benzothiazole-2-carboxylic acid (2-p-tolyl-ethyl)-amide] — lower, 136 to 138 °C
- COc1ccc(N2CCOCC2)c2sc(C(=O)NCC3(c4ccccc4)CCOCC3)nc12 [Example 30, 4-Methoxy-7-morpholin-4-yl-benzothiazole-2-carboxylic acid (4-phenyl-tetrahydro-pyran-4-ylmethyl)-amide] — lower, 144 to 148 °C
- COc1ccc(N2CCOCC2)c2sc(C(=O)NCc3ccncc3)nc12 [Example 31, 4-Methoxy-7-morpholin-4-yl-benzothiazole-2-carboxylic acid (pyridin-4-ylmethyl)-amide] — higher, 207 to 209 °C
- COc1ccc(N2CCOCC2)c2sc(C(=O)NCC(=O)c3sc4ccccc4c3C)nc12 [Example 76, 4-Methoxy-7-morpholin-4-yl-benzothiazole-2-carboxylic acid [2-(3-methyl-benzo[b]thiophen-2-yl)-2-oxo-ethyl]-amide] — lower, 185 to 187 °C
- COc1ccc(N2CCOCC2)c2sc(C(=O)Nc3ccc(F)cc3)nc12 [Example 2, 4-Methoxy-7-morpholin-4-yl-benzothiazole-2-carboxylic Acid (4-Fluoro-phenyl)-amide] — higher, 206 to 208 °C
- COc1ccc(N2CCOCC2)c2sc(C(=O)NCC3Cc4ccccc4C(=O)N3)nc12 (centres unmarked) [Example 36, 4-Methoxy-7-morpholin-4-yl-benzothiazole-2-carboxylic acid (1-oxo-1,2,3,4-tetrahydro-isoquinolin-3-ylmethyl)-amide] — lower, 152 to 155 °C
- COc1ccc(N2CCOCC2)c2sc(C(=O)NNC(=O)c3cccnc3)nc12 [Example 44, Nicotinic acid N′-(4-methoxy-7-morpholin-4-yl-benzothiazole-2-carbonyl)-hydrazide] — higher, 222 to 224 °C
- COc1ccc(N2CCOCC2)c2sc(C(=O)NC[C@@H]3CCCC[C@H]3O)nc12 (stereo in doubt) [Example 43, 4-Methoxy-7-morpholin-4-yl-benzothiazole-2-carboxylic acid (2-hydroxy-cyclohexylmethyl)-amide] — lower, 133 to 135 °C
- COc1ccc(N2CCOCC2)c2sc(C(=O)NC(c3ccccc3)c3ccccc3)nc12 [Example 47, 4-Methoxy-7-morpholin-4-yl-benzothiazole-2-carboxylic acid benzhydryl-amide] — lower, 166 to 168 °C
- COc1ccc(N2CCOCC2)c2sc(C(=O)NC(C)c3csc(C)n3)nc12 (centres unmarked) [Example 80, 4-Methoxy-7-morpholin-4-yl-benzothiazole-2-carboxylic acid [1-(2-methyl-thiazol-4-yl)-ethyl]-amide] — lower, 174 to 175 °C
- COc1ccc(N2CCOCC2)c2sc(C(=O)NCc3ccccc3)nc12 [Example 3, 4-Methoxy-7-morpholin-4-yl-benzothiazole-2-carboxylic Acid Benzylamide] — lower, 156 to 158 °C
- COc1ccc(N2CCOCC2)c2sc(C(=O)NCc3ccc(Cl)cc3)nc12 [Example 7, 4-Methoxy-7-morpholin-4-yl-benzothiazole-2-carboxylic acid 4-chloro-benzylamide] — lower, 175 to 176 °C
- COc1ccc(N2CCOCC2)c2sc(C(=O)NCC3CC3)nc12 [Example 24, 4-Methoxy-7-morpholin-4-yl-benzothiazole-2-carboxylic acid cyclopropylmethyl-amide] — lower, 152 to 153 °C
- COc1ccccc1C(=O)NCCNC(=O)c1nc2c(OC)ccc(N3CCOCC3)c2s1 [Example 37, 4-Methoxy-7-morpholin-4-yl-benzothiazole-2-carboxylic acid [2-(2-methoxy-benzoylamino)-ethyl]-amide] — lower, 180 to 183 °C
- COc1ccc(N2CCOCC2)c2sc(C(=O)NCc3ccccc3F)nc12 [Example 21, 4-Methoxy-7-morpholin-4-yl-benzothiazole-2-carboxylic acid 2-fluoro-benzylamide] — lower, 133 to 134 °C
- COc1ccc(N2CCOCC2)c2sc(C(=O)NCCc3ccccc3C)nc12 [Example 74, 4-Methoxy-7-morpholin-4-yl-benzothiazole-2-carboxylic acid (2-o-tolyl-ethyl)-amide] — lower, 129 to 131 °C
- COc1ccc(N2CCOCC2)c2sc(C(=O)NNC(=O)c3ccccn3)nc12 [Example 52, Pyridine-2-carboxylic acid N′-(4-methoxy-7-morpholin-4-yl-benzothiazole-2-carbonyl)-hydrazide] — higher, 225 to 226 °C
- COc1ccc(N2CCOCC2)c2sc(C(=O)Nc3ccccc3)nc12 [Example 4, 4-Methoxy-7-morpholin-4-yl-benzothiazole-2-carboxylic acid phenylamide] — not separable, 190 to 191 °C
- COc1ccc(CCNC(=O)c2nc3c(OC)ccc(N4CCOCC4)c3s2)cc1 [Example 68, 4-Methoxy-7-morpholin-4-yl-benzothiazole-2-carboxylic acid [2-(4-methoxy-phenyl)-ethyl]-amide] — lower, 69 to 71 °C
- COc1ccc(N2CCOCC2)c2sc(C(=O)NCc3cccc(F)c3)nc12 [Example 20, 4-Methoxy-7-morpholin-4-yl-benzothiazole-2-carboxylic acid 3-fluoro-benzylamide] — lower, 152 to 153 °C
- COc1ccc(N2CCOCC2)c2sc(C(=O)NC3CCCCC3)nc12 [Example 5, 4-Methoxy-7-morpholin-4-yl-benzothiazole-2-carboxylic acid cyclohexylamide] — lower, 146 to 147 °C
- COc1ccc(C(=O)CNC(=O)c2nc3c(OC)ccc(N4CCOCC4)c3s2)cc1 [Example 66, 4-Methoxy-7-morpholin-4-yl-benzothiazole-2-carboxylic acid [2-(4-methoxy-phenyl)-2-oxo-ethyl]-amide] — lower, 176 to 178 °C
- COc1ccc(N2CCOCC2)c2sc(C(=O)NCC(=O)c3ccsc3)nc12 [Example 79, 4-Methoxy-7-morpholin-4-yl-benzothiazole-2-carboxylic acid (2-oxo-2-thiophen-3-yl-ethyl)-amide] — higher, 229 to 232 °C
- COc1ccc(N2CCOCC2)c2sc(C(=O)NCc3ccc(C)o3)nc12 [Example 70, 4-Methoxy-7-morpholin-4-yl-benzothiazole-2-carboxylic acid (5-methyl-furan-2-ylmethyl)-amide] — lower, 173 to 174 °C
- COc1ccc(N2CCOCC2)c2sc(C(=O)NCc3ccc4c(c3)OCO4)nc12 [Example 14, 4-Methoxy-7-morpholin-4-yl-benzothiazole-2-carboxylic acid (benzo[1,3]dioxol-5-ylmethyl)-amide] — not separable, 190 to 193 °C
- COc1ccc(N2CCOCC2)c2sc(C(=O)NCC3CCCO3)nc12 (centres unmarked) [Example 41, 4-Methoxy-7-morpholin-4-yl-benzothiazole-2-carboxylic acid (tetrahydro-furan-2-ylmethyl)-amide] — lower, 171 to 172 °C
- COc1ccc(N2CCOCC2)c2sc(C(=O)NCCSc3nnc(N)s3)nc12 [Example 83, 4-Methoxy-7-morpholin-4-yl-benzothiazole-2-carboxylic acid [2-(5-amino-[1,3,4]thiadiazol-2-ylsulfanyl)-ethyl]-amide] — higher, 237 to 239 °C
- COc1cc(OC)cc(C(=O)NNC(=O)c2nc3c(OC)ccc(N4CCOCC4)c3s2)c1 [Example 56, 3,5-Dimethoxy-benzoic acid N′-(4-methoxy-7-morpholin-4-yl-benzothiazole-2-carbonyl)-hydrazide] — lower, 146 to 148 °C
- COc1ccc(N2CCOCC2)c2sc(C(=O)NCCCN3C(=O)c4ccccc4C3=O)nc12 [Example 32, 4-Methoxy-7-morpholin-4-yl-benzothiazole-2-carboxylic acid [3-(1,3-dioxo-1,3-dihydro-isoindol-2-yl)-propyl]-amide] — higher, 200 to 202 °C
- COc1ccc(N2CCOCC2)c2sc(C(=O)NCc3cccs3)nc12 [Example 23, 4-Methoxy-7-morpholin-4-yl-benzothiazole-2-carboxylic acid (thiophen-2-ylmethyl)-amide] — lower, 174 to 175 °C
- COc1ccc(NC(=O)c2nc3c(OC)ccc(N4CCOCC4)c3s2)cc1 [Example 10, 4-Methoxy-7-morpholin-4-yl-benzothiazole-2-carboxylic acid (4-methoxy-phenyl)-amide] — lower, 148 °C
- COc1ccc(N2CCOCC2)c2sc(C(=O)NCCc3cccc(NC(C)=O)c3)nc12 [Example 50, 4-Methoxy-7-morpholin-4-yl-benzothiazole-2-carboxylic acid [2-(3-acetylamino-phenyl)-ethyl]-amide] — lower, 165 to 166 °C
- COc1ccc(N2CCOCC2)c2sc(C(=O)NCCCCN3C(=O)c4ccccc4C3=O)nc12 [Example 33, 4-Methoxy-7-morpholin-4-yl-benzothiazole-2-carboxylic acid [4-(1,3-dioxo-1,3-dihydro-isoindol-2-yl)-butyl]-amide] — lower, 114 to 118 °C
- COc1ccc(N2CCOCC2)c2sc(C(=O)NCCN3Cc4ccccc4C3=O)nc12 [Example 29, 4-Methoxy-7-morpholin-4-yl benzothiazole-2-carboxylic acid [2-(1-oxo-1,3-dihydro-isoindol-2-yl)-ethyl]-amide] — higher, 199 to 205 °C
- COc1ccc(N2CCOCC2)c2sc(C(=O)NC[C@H]3CCCC[C@H]3O)nc12 (stereo in doubt) [Example 42, 4-Methoxy-7-morpholin-4-yl-benzothiazole-2-carboxylic acid (2-hydroxy-cyclohexylmethyl)-amide] — lower, 178 to 180 °C
